Reference: PubChem BioAssay (NCI)
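These data come from cells grown in 96-well plates and exposed to compound for 48 hours at five concentrations. TGI: total growth inhibition.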

Tests used:
Test in all cases: NCI anticancer screen, dose series, 48 h
UACC-62 melanoma = test system: UACC-62 melanoma
SK-MEL-5 melanoma = test system: SK-MEL-5 melanoma
A549 NSCLC = test system: A549 NSCLC
SNB-78 CNS = test system: SNB-78 CNS
SF-539 CNS = test system: SF-539 CNS
UO-31 renal = test system: UO-31 renal
SN12C renal = test system: SN12C renal
PC-3 prostate = test system: PC-3 prostate
NCI-H23 lung = test system: NCI-H23 lung
LXFL 529 NSCLC = test system: LXFL 529 NSCLC

Compound	TGI (UACC-62 melanoma) [µM]	TGI (SK-MEL-5 melanoma) [µM]	TGI (A549 NSCLC) [µM]	TGI (SNB-78 CNS) [µM]	TGI (SF-539 CNS) [µM]	TGI (UO-31 renal) [µM]	TGI (SN12C renal) [µM]	TGI (PC-3 prostate) [µM]	TGI (NCI-H23 lung) [µM]	TGI (LXFL 529 NSCLC) [µM]
CCOC(=O)Oc1cc2c(c(OC)c1OC)-c1ccc(OC)c(=O)cc1C(NC(C)=O)CC2 (stereo unspecified)	25.2	0.14	> 100	> 100	0.232	> 100	> 100	> 100	8.82	> 100
CC1=C(C(=O)Nc2ccccc2)C(c2cccc3ccccc23)C(C(=O)Nc2ccccc2)=C(C)N1	27.8	33.4	82	94.3	37.9	52.8	33.3		52.5	34.4
O=C(/C=C/c1ccccc1F)c1ccc(Cl)c(Cl)c1	> 100	> 84.1	> 100	> 100	> 100	> 100	98.5		24	35.6
CC(=O)c1c2c(cc3c1CC1(C3)Cc3cc4c(c(C(C)=O)c3C1)CCC4)CCC2	> 100	> 100	> 100	> 100	> 100	> 100	> 100		> 100	> 100
N#C/C(=C/c1ccc2c(c1)OCO2)C(=O)c1ccccc1	> 100	> 100	> 100	> 100	> 100	> 100	> 100		> 100	> 100
Nc1ccc(C(=O)N/C(=C\c2cccc([N+](=O)[O-])c2)c2nc3[nH]c(=S)[nH]c(=O)c3[nH]2)cc1	> 56.2	> 100	> 100	> 100	67	> 100	> 100	> 100	> 100	> 100
COC(=O)N/N=C(\C)c1c(O)cc(C)oc1=O	> 100	> 100	> 100	> 100	58	> 100	> 100		> 100	45.5
CC1=C(/C=C/C(C)=C/C2CC(N(C)C)=CC(=O)O2)C(C)(C)CCC1 (stereo unspecified)	27	19.6	22.3	41.9	30.2	22.7	29.2		27.8	24
Cc1ccc(S(=O)(=O)SC(C)(C)C)cc1	48.6	> 100	> 100	> 100	> 77.8	> 100	> 65.2		19.5	> 100
O=[N+]([O-])C(/C=N/Nc1ccccc1)/C=N/Nc1ccccc1	> 100	> 100	> 100	> 100	> 100	> 100	> 100		> 100	> 100
O=C1/C=C(/c2ccc(O)cc2)[C@@H](O)Cc2ccc(O)cc2O1	> 100	> 100	> 100	> 100	> 100	> 100	> 100		> 100	> 100
